In patent US20260325477A1, “METHODS OF TREATMENT USING DRY POWDER COMPOSITIONS OF TREPROSTINIL PRODRUGS” (Insmed Incorporated, priority 2024, published 2026):

Assays:
[1] = Phase I pharmacokinetics of treprostinil after inhalation of the compound of Formula (II); assay type: in vivo, human; conditions: dose range of 112.5 μg to 675 μg
Experimental: The term “Cmax” means the maximum (or peak) treprostinil serum concentration measured after a compound of Formula (I) or (II), an enantiomer or diastereomer thereof, or a pharmaceutically acceptable salt thereof is administered to the lungs of a subject via a dry powder composition described herein. In addition, Cmax may be measured after a single administration of a compound of Formula (I) or (II), an enantiomer or diastereomer thereof, or a pharmaceutically acceptable salt thereof, described herein, or treprostinil Cmax may be measured at steady state. Unless stated otherwise, Cmax refers to the average treprostinil Cmax measured after a single administration among a population of subjects (e.g., a population of PH patients).
The term “AUC” means the area under the plasma concentration time curve for treprostinil, measured from time 0 to a certain time post-administration to the lungs of a subject, calculated by a combination of linear and logarithmic trapezoidal methods (Linear up/log down method). […] In addition, treprostinil AUC may be measured after a single administration or at steady state values. Unless stated otherwise, AUC refers to the average AUC measured after a single administration among a population of subjects (e.g., a population of PH patients). […]

[2] = tested on: healthy adults; assay: Phase I single-dose safety and tolerability of TPIP in healthy adults; assay type: in vivo, human; conditions: single doses 112.5, 225, 450 and 675 μg
Experimental: Specifically, in a Phase I safety, tolerability, and PK study, healthy adults were administered single doses of 112.5 μg, 225 μg, 450 μg, and 675 μg of a compound of Formula (II).

[3] = tested on: rodent model of PAH; assay: Rodent model of PAH; assay type: in vivo; conditions: inhibition of associated adverse pathology and pathophysiology
Text: (§1) Treprostinil palmitil (TP) is a hexadecyl ester prodrug of treprostinil (TRE). In the lung, TP is hydrolyzed by esterases to TRE and hexadecanol.

[4] = Nonclinical safety and toxicology of TP; assay type: in vivo
Text: as §1

[5] = tested on: subjects with pulmonary hypertension; assay: Phase 2 safety and efficacy study in subjects with pulmonary hypertension; assay type: in vivo, human
Experimental: In a Phase 2 safety and efficacy study, the following doses of were investigated in subjects with pulmonary hypertension, including pulmonary arterial hypertension: 80 μg, 160 μg, 240 μg, 320 μg, 400 μg, 480 μg, and 640 μg. In this study, patients were administered a starting dose of 80 μg of the TPIP and the dose was titrated up to 640 μg according to FIG. 2.

[6] = Nonclinical studies of TP: conversion, delivery, PK and PD
Text: as §1

- pharmacokinetic (PK) profile, dose linearity [1]: linear
- PK and PD profile [6]: prolonged PK and PD profile
- delivery of treprostinil to the lungs and systemic circulation [6]: sustained delivery
SMILES: CCCCCCCCCCCCCCCCOC(=O)COc1cccc2c1C[C@H]1C[C@@H](O)[C@H](CC[C@@H](O)CCCCC)[C@H]1C2 [treprostinil palmitil]
- safety and tolerability [2]: safe and well-tolerated
- serious or severe TEAEs [2]: no serious or severe TEAEs were observed
- efficacy in a rodent model of PAH [3]: efficacious
- preclinical safety or toxicological findings [4]: did not demonstrate concerning preclinical safety or toxicological findings
- tolerability ([5]; 640 μg, highest dose administered in a clinical trial): well tolerated
- tolerability ([5]; all doses, 80 μg to 640 μg): well tolerated
- efficacy ([5]; higher doses): promising efficacy
- conversion from the prodrug to the active drug, treprostinil ([6]; in vitro and in vivo): converted from the prodrug to the active drug, treprostinil
